What all share (type): physicochemical
Data set [1] in a line: Thickening effect of Example 1 on various vehicles: Perhydrosqualene. The following applies: 0.2% in Perhydrosqualene. As to the method: (§1) The thickening of the medium can be carried out by completely dissolving the fluorinated compound of formula I, at a temperature ranging from 20° C. to 80° C., and then by allowing the mixture to stand until it is completely thickened.
(§2) Thickening effect of Example 1 on various vehicles
(§3) Gelled media were thus obtained.

Data set [2] is described as follows: Thickening effect of Example 1 on various vehicles: Petroleum jelly. The following applies: 0.2% in Petroleum jelly. As to the method:
as §1, §2, §3

A short description of data set [3]: Thickening effect of Example 1 on various vehicles: Sunflower oil. Particulars: 0.2% in Sunflower oil. As to the method: as §1, §2
(§4) As is evident, Sunflower refers to Sunflower oil and Parleam refers to Parleam oil. Eutanol G is a tradename for octyldodecanol and is manufactured by Henkel.
as §3

The nature of data set [4]: Thickening effect of Example 1 on various vehicles: Parleam oil. Particulars: 0.2% in Parleam oil. As to the method:
as §1, §2, §4, §3

A short description of data set [5]: Thickening effect of Example 1 on various vehicles: Olive oil. Particulars: 0.2% in Olive oil. As to the method: as §1, §2, §3
Data set [6] is described as follows: Stability of the thickened (gelled) media over time. The following applies: over a period of over 6 months.
Description: as §3

The structures appear in SMILES notation.

For the compound `CCCCCCCCCCCCCCCCOC(=O)NCCCCCCCCCCC(=O)OCCC(F)(F)C(F)(F)C(F)(F)C(F)(F)C(F)(F)C(F)(F)C(F)(F)C(F)(F)F` [Example 1, 2-(F-octyl)ethyl 11-(N-hexadecyloxycarbonyl)aminoundecanoate], the Thickening effect result in data set [1], in data set [2], in data set [3], in data set [4] and in data set [5] was “no effect” throughout. The “Stability of thickened media” value in data set [6] was “perfect stability”.

The record behind these values is US5753240A, “Fluorinated compounds and compositions comprising them” (L'Oreal, priority 1994, dated 1998).
